Data published in publication PMC4449006, “Targeting KRAS Oncogene in Colon Cancer Cells with 7-Carboxylate Indolo[3,2-b]quinoline Tri-Alkylamine Derivatives” (PLoS ONE, 2015).
Read-outs that look alike come from different tables or passages of the source.

Tests used:
HCT116 cells = assay: MTS short-term cytotoxicity assay (72 h), HCT116; assay type: cell-based, human; settings: for Selective index (SI) = IC50 CCD-18co / IC50 HCT116: CCD18co vs HCT116; for IC50: Homo sapiens, read-out: HCT116 IC50
Description: (§1) The short-term effect of compounds at 72 h on cell growth was studied using colorectal carcinoma cell lines with different KRAS and TP53 genotypes: human colorectal carcinoma HCT116 (mut Kras, wild-type (wt) p53), and human metastatic colorectal adenocarcinoma SW620 (mut Kras, mut p53). In parallel, we also used the immortalized human embryonic kidney cell line HEK293T (wt Kras, wt p53) and normal human colon fibroblast cells CCD18co (wt Kras, wt p53).
(§2) SW620 human colorectal adenocarcinoma cells (European Collection of Cell Cultures, ECACC, Porton Down, Wiltshire, UK), HEK293T human embryonic kidney cells (ATCC, LGC Standards, UK) HCT116 human colon carcinoma cells (ECACC), HCT116 p53(+/+) and p53(−/−) isogenic human colon cancer cells (GRCF Cell Center and Biorepository, the Johns Hopkins University, School of Medicine, Baltimore, MD, USA), were grown in Dulbecco’s modified Eagle’s medium (DMEM) supplemented with 10% fetal bovine serum, and 1% antibiotic/antimycotic (Invitrogen, Grand Island, NY, USA), CCD18co human colon fibroblasts (ATCC, CRL-1459) were grown in Minimum Essential Medium (MEM) supplemented with 10% fetal bovine serum, 1% antibiotic/antimycotic, 2 mM GlutaMAX, 0,1 mM Non-essential amino acids (NEAA) (Invitrogen) and […] Recombinant Human TNF-α (Peprotech, USA) and maintained at 37°C in a humidified atmosphere of 5% CO2.
(§3) Cell viability was evaluated by the tetrazolium dye (MTS) Short-Term Cytotoxicity Assay. […] Following 72 h of compound exposure, cell viability was evaluated using the CellTiter 96 AQueous Non-Radioactive Cell Proliferation Assay (Promega, Madison, WI, USA), using 3-(4,5-dimethylthiazol-2-yl)-5-(3-carboxymethoxyphenyl)-2-(4-sulfophenyl)-2H-tetrazolium, inner salt (MTS) as previously described [35]. Cell viability data were expressed as mean ±SD from at least three independent experiments. IC50 and IC65 values were determined using GaphPad Prism v.5.00 (GraphPad Software). In selected experiments, cell viability was also assessed by trypan blue exclusion assay, and general cell death by LDH activity from cell culture supernatants.

SW620 cells [1] = assay: Guava ViaCount assay, SW620; assay type: cell-based, human; settings: SW620, 72 h, IC50 and IC65 concentrations
Excerpt: Subsequently, the Guava ViaCount assay was used to evaluate the effects of IQ3A compounds on cell death induction in cancer (HCT116 and SW620) and non-malignant (HEK293T and CCD18co) cells, compared to 5-FU and TMPyP4 at equitoxic concentrations (IC50 and IC65). Down-regulation of mutant KRAS expression by antisense oligonucleotides in colorectal cancer cells,[8],[30] and by a MAZ-binding oligonucleotide decoy in pancreatic cancer cells has been associated with increased apoptosis and cell growth arrest. Also, anticancer drugs, such as 5-FU and G4 stabilizers of telomeric and oncogene promoter sequences such as TMPyP4, are known to induce a generalized cell response leading to cell growth arrest and cell death by apoptosis (DNA damage response),[32], which involves activation of the pro-apoptotic transcription factor p53 among other pathways in the case of 5-FU [34]. […] The effect of TMPyP4 on SW620 was not studied, as this cell line was not sensitive to this compound up to a 20 μM concentration.
Fig 3 Exposure to IQ3A compounds induces cell death, mainly by apoptosis in HCT116 cells. […] Results are expressed as the mean percentage (%) of viable, mid-apoptotic and dead cells ± SEM, of at least three different experiments, for A. IC50, and for B. IC65 compound concentrations. a, p < 0.05; b, p < 0.01 from DMSO (vehicle control); c, p < 0.05; and d, p < 0.01 from 5-FU. […]

HEK293T cells = assay: MTS short-term cytotoxicity assay (72 h), HEK293T; assay type: cell-based, human; settings: for IC50: Homo sapiens, HEK-293T; for HEK293T IC65: standard errors ≤ 0.1
Description: as §1, §2, §3

SW620 cells [2] = assay: MTS short-term cytotoxicity assay (72 h), SW620; assay type: cell-based; settings: for IC50: Homo sapiens, read-out: SW620 IC50
Description: as §1, §2, §3

CCD18co cells = assay: MTS short-term cytotoxicity assay (72 h), CCD18co; assay type: cell-based; settings: Homo sapiens, CCD-18Co
Description: as §1, §2, §3

KRAS21 G-quadruplex DNA = assay: FRET melting assay, KRAS G-quadruplex DNA; assay type: binding; settings: 1 μM compound; standard deviation < 0.2°C
Description: (§4) The capacity of compounds 1a-d, 2a-d and the standard G4 ligand TMPyP4 (Fig 1) to bind and stabilize KRAS [26] and HSP90A [27] G4 DNA structures as well as duplex DNA (T-loop) was evaluated by a Fluorescence Resonance Energy Transfer (FRET) melting assay. […] It was observed that the basicity of side chains correlates positively with thermal G4 stabilization of all DNA sequences up to an optimal pKa ~ 8.0–9.0 (Fig 2). Heterocyclic amines at the end of alkyl side chain (1b and 2b) appear to improve binding to G4s and complex stabilization compared to the di-ethylamine group (1a and 2a), which cannot be explained by differences in basicity between terminal groups. […] However, this was not observed for the isomeric pair 1a / 2a.
(§5) All oligonucleotides were purchased from Eurofins MWG Synthesis GmbH, Germany. The labeled oligonucleotides used in the FRET assays had attached the donor fluorophore FAM (6-carboxyfluorescein) and the acceptor fluorophore TAMRA (6-carboxytetramethylrhodamine): KRAS21R (5’-FAM-[…]-TAMRA-3’); HSP90A (5’- [FAM]-[…]-[TAMRA]-3’); T-Loop (5’-FAM-[…]-TAMRA-3’). Each oligonucleotide was initially diluted to a storage solution at 100 μM in nuclease free water (not DEPC-treated), purchased from Ambion Applied Biosystems UK.
(§6) The ability of IQ3A and TMPyP4 to stabilize G-quadruplex and duplex DNA sequences was investigated using a Fluorescence Resonance Energy Transfer (FRET) assay. Stock solution of the oligonucleotides sequences at 20 μM and subsequent dilutions were obtained from storage solutions diluting with K-cacodylate buffer pH = 7.4, containing 60 mM K^+ (10 mM potassium cacodylate, 50 mM KCl). The FRET probe sequences were diluted from stock to the correct concentration (0.4 μM) and then annealed by heating to 95°C for 10 min, followed by cooling to RT. Test compounds were prepared as 1 mM in 10% DMSO and 10% 1mM HCl in HPLC-grade water. The rest of the dilutions were performed using FRET buffer. Annealed DNA (50 μL) and compound solution (50 μL) were distributed across 96-well RT-PCR plates (BioRad; MJ Research, Waltham, MA, USA). Relevant controls were also performed to check for interference with the assay. Fluorescence readings were made on a DNA Engine Opticon (MJ Research) with excitation at 450–495 nm and detection at 515–545 nm, taken at intervals of 0.5°C in the range 30–100°C, with a constant temperature being maintained for 30 s prior to each reading to ensure a stable value. Experiments were performed in triplicate. Final analysis of the data was carried out with GraphPad Prism 5.0 software (GraphPad Software, Inc). The advanced curve-fitting function in GraphPad Prism was used for calculation of ΔT m values and associated standard deviations.

T-Loop duplex DNA = assay: FRET melting assay, duplex DNA; assay type: binding; settings: 1 μM compound; standard deviation < 0.2°C
Description: as §4, §5, §6

KRAS protein = KRAS protein steady-state expression by immunoblot; settings: HCT116, 72 h, equitoxic (IC50) concentration
KRAS mRNA = KRAS mRNA steady-state levels by Taqman Real-time RT-PCR; settings: HCT116, 72 h, equitoxic concentration
KRAS gene promoter = assay: KRAS promoter activity Dual-Luciferase reporter assay; assay type: cell-based, human; settings: HCT116 and SW620 cells, PGL-Ras0.5, 24 h, IC50 concentrations
Excerpt: To validate that the mechanism of anti-proliferative activity and apoptotic induction by IQ3A compounds involves repression of KRAS gene expression as a result of the stabilization of G4-forming sequences present in the promoter, the effects of compounds on the KRAS gene promoter were directly evaluated by a luciferase reporter assay. For this purpose, we used two different size promoter constructs containing the G4 region of the KRAS gene promoter, cloned into the pGL3 Basic backbone: pGL-Ras0.5, pGL-Ras2.0, and pGL3 Basic empty (Firefly Luciferase negative control/no promoter), co-transfected together with pRL-TK (transfection efficiency normalization) into HEK293T cells, as a G4 negative control.
KRAS promotor luciferase reporters respectively harbor 500 bp and 2000 bp of the human KRAS promotor region, kindly provided by Prof. Kim Nam-Soon. pGL3 Basic empty was used as negative control, and pRL-TK simultaneously for transfection efficiency normalization and as a G4 negative control. […] Finally, 72 h after compound incubation, cells were lysed and firefly and renilla luciferase activities were measured using Dual-Luciferase Reporter Assay System (Promega). […] Twenty-four h later, cells were lysed and renilla luciferase activities were measured and expressed as above. The results are expressed as the mean ± SEM fold-change compared to DMSO exposure, from three independent experiments.

[3] = 72 h, MTS, standard errors ≤ 0.1

SMILES	HCT116 IC65 (HCT116 cells; [3]) [µM]	Selective index (SI) = IC50 CCD-18co / IC50 HCT116 (HCT116 cells)	IC50 (HCT116 cells; HCT-116, 72 h, MTS, standard errors ≤ 0.1) [µM]	induction of apoptosis / cell death (SW620 cells [1])	IC50 (HEK293T cells; MTS, standard errors ≤ 0.1, read-out: HEK293T IC50) [µM]	HEK293T IC65 (HEK293T cells; MTS) [µM]	SW620 IC65 (SW620 cells [2]; [3]) [µM]	IC50 (SW620 cells [2]; SW-620, 72 h, MTS, standard errors ≤ 0.1) [µM]	IC50 (CCD18co cells; MTS, standard errors ≤ 0.1, read-out: CCD18co IC50) [µM]	IC50 (HCT116 cells; HCT-116, 72 h) [µM]	ΔTm (°C) KRAS21 1 μM (KRAS21 G-quadruplex DNA) [°C]	ΔTm (°C) T-Loop 1 μM (T-Loop duplex DNA) [°C]	IC50 (HEK293T cells; read-out: HEK293T IC50) [µM]	decrease of KRAS protein steady-state levels (KRAS protein) [%]	reduction of KRAS mRNA steady-state levels (KRAS mRNA)	reduction of KRAS promoter activity (KRAS gene promoter)	IC50 (SW620 cells [2]; SW-620, 72 h) [µM]	IC50 (CCD18co cells; read-out: CCD18co IC50) [µM]
O=c1[nH]cc(F)c(=O)[nH]1 [5-FU, 5-fluorouracil, reference compound]	4.13	> 42	2.38	able to induce apoptosis in a dose-dependent manner	2.66	4.13	8.32	5.39	> 100									
C[n+]1ccc(-c2c3nc(c(-c4cc[n+](C)cc4)c4ccc([nH]4)c(-c4cc[n+](C)cc4)c4ccc([nH]4)c(-c4cc[n+](C)cc4)c4nc2C=C4)C=C3)cc1 [TMPyP4, reference compound]	14.21	3.08				4.11	> 20			12.4	25	16	2.97	~80	unable to reduce KRAS mRNA steady-state levels	significantly reduce KRAS promoter activity	> 20	38.2
